# Measured values published in patent US8278320B2, “Azabicyclo[2.2.1]heptane compounds as alpha-7 nicotinic acetylcholine receptor ligands” (Bristol-Myers Squibb Company, priority 2009, dated 2012).
# Like-named read-outs stand apart in the source and are kept apart here.
# Molecular target: α-7 nicotinic ACh receptor ion channel expressed in mammalian HEK 293 cells (Rattus norvegicus, UniProt Q05941)
# Assay: Ca2+-sensitive, fluorescence-based FLIPR assay for α-7 nicotinic acetylcholine receptor channel function (agonist activity)
# Type: cell-based
# Parameters: expressed in transfected cells
# Conditions: Ca2+ flux, HEK-293 cells, Fluo-4
# Protocol: I) α7 Nicotinic Acetycholine Receptor Binding. Membranes were prepared for binding using HEK293 cells stably expressing the rat α7 nicotinic acetycholine receptor (rat α7 nAChR). Cells were homogenized at 4° C. in hypotonic lysis buffer consisting of 10 mM Tris (pH 7.4), 5 mM EDTA and protease inhibitors and centrifuged at 32000×g for 20 minutes. The pellet was washed once in membrane wash buffer consisting of 50 mM Tris (pH 7.4), 1 mM EDTA and protease inhibitors and centrifuged at 32000×g for 20 minutes. This pellet was then resuspended in assay buffer consisting 50 mM KH2PO4 (pH 7.4 at 25° C.), 1 mM EDTA, 0.005% Triton-X 100 and 0.1% (v/v) Sigma Protease Inhibitor Cocktail. Aliquots were then frozen in dry ice/ethanol and kept at −80° C. until the day of the assay. II) A Ca^2+-Sensitive, Fluorescence-Based Assay α-7 for Nicotinic Acetylcholine Receptor Channel Function In Mammalian Cells (“FLIPR”). Summary: Lead compounds are evaluated for agonist activity at α-7, α3β4, α4αβ2, and α1β1δ1ε sub-types of nicotinic ACh receptor ion channels expressed in mammalian HEK 293 cells. Agonist potency and efficacy values are determined from kinetic fluorescence Ca^2+ influx measurements made using a 384 well FLIPR (Fluorescence Image Plate Reader). […] In this assay, channel expressing HEK cell lines seeded in 384 well assay plates are loaded with a membrane permeant fluorescent Ca^2+ indicator dye, whose 510 nm green emission signal increases in response to elevation of intracellular Ca^2+ concentration. The basal fluorescence from the cells is monitored in real time, followed by the acute addition of test compounds.
# Materials and Methods: Reagents: The acetomethoxy (AM) ester of the Ca^2+ indicator dye Fluo-4 was obtained from InVitrogen, (Carlsbad, Calif.). Acetylcholine and all buffer constituents were purchased from Sigma Chemical Company, St. Louis, Mo. G418 and Minimal Essential Medium were purchased from InVitrogen Life Technologies, Carlsbad, Calif. Fetal bovine serum was purchased from (InVitrogen, Carlsbad, Calif.).
# Cell Culture: HEK-293 cells were grown in Minimal Essential Medium containing 10% (v/v) fetal bovine serum at 37° C. in a 5% CO2 incubator. HEK-293 cells stably expressing the ion channels were grown in the same medium with the addition of 500 μg/ml G418.
# Ca^2+ flux assays of Ca^2+ channels expressed in HEK-293 cells: HEK-293 cells expressing the ion channels of interest were plated in 384 well, black-walled, clear-bottomed, poly-D-lysine coated plates at a density of ˜20,000 cells/well in 20 μl of Minimal Essential Medium containing 10% (v/v) fetal bovine serum and incubated for 2 days at 29° C. in a 5% CO2 incubator. Prior to assay, cells were loaded with the Fluo-4 AM ester. […] Dye loading was allowed to proceed for 90 minutes at room temperature at which time the dye loading solution was removed and replaced with 40 μl/well of Hanks buffer. Cells loaded with dye were loaded onto a FLIPR384 (Molecular Devices, Sunnyvale, Calif.). Fluo-4 dye was excited using the 488 nm line of an argon laser. Emission was filtered using a 540+/−30 nm bandpass filter. For evaluation of the effects of test compounds using the Ca^2+ flux assay, compounds to be tested were provided in assay ready plates. For nicotinic receptor ion channel expressing cells, the assay was initiated by the addition of 20 μl/well of Hanks buffer containing test compounds. For all assays, data were collected at 1 Hz for 10 seconds (baseline), at which time the compound containing stimulus buffers are added, and further measurements collected at 0.33 Hz for 3 min.
# Data Analysis: The statistical robustness of the nicotinic receptor Ca^2+ flux assays is determined from blanks and totals wells. […] The raw fluorescence units data files generated on the FLIPR plate reader are automatically exported and processed by in-house data analysis tools.
# [1] = agonist potency class, read-out: FLIPR α7 activity rating (EC50)
# [2] = agonist potency, read-out: FLIPR α7-HI (EC50)
# [3] = FLIPR α7-HI (EC50, nM), agonist potency
# [4] = FLIPR α7 activity rating (EC50, nM), agonist potency class
# α-7 nicotinic ACh receptor ion channel expressed in mammalian HEK 293 cells, sequence (Q05941 23-502): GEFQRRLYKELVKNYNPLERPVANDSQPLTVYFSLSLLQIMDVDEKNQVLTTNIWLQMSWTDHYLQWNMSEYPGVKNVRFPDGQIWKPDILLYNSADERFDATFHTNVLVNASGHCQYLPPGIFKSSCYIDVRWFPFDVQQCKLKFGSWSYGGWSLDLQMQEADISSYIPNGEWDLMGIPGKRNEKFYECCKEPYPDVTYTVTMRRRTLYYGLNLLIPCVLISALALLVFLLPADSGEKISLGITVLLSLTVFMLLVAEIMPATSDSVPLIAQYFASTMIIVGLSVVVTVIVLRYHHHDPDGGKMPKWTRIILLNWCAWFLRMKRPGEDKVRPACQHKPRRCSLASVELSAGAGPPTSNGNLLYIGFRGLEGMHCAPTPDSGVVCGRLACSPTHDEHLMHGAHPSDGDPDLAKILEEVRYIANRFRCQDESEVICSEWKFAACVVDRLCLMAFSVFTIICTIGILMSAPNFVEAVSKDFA
Compound,EC50 [3],EC50 [4],other results
"COc1ccc2nc(NC3=NC[C@@]4(C[N@]5CC[C@H]4C5)O3)sc2c1 (relative stereo) [Example 1, (3R*,4S*)—N-(6-Methoxybenzo[d]thiazol-2-yl)-4′H-1-azaspiro[bicyclo[2.2.1]heptane-3,5′-oxazol]-2′-amine]",,,EC50 [1]: 1000 to 100000 nM; EC50 [2]: 411 nM
"COc1ccc2nc(NC3=NC[C@@]4(C[N@@]5CC[C@@H]4C5)O3)sc2c1 (relative stereo) [Example 2, (3R*,4R*)—N-(6-Methoxybenzo[d]thiazol-2-yl)-4′H-1-azaspiro[bicyclo[2.2.1]heptane-3,5′-oxazol]-2′-amine]",,,EC50 [1]: 1000 to 100000 nM
"Clc1ccc2nc(NC3=NC[C@@]4(C[N@@]5CC[C@@H]4C5)O3)sc2n1 (relative stereo) [Example 3, (3R*,4R*)—N-(5-Chlorothiazolo[5,4-b]pyridin-2-yl)-4′H-1-azaspiro[bicyclo[2.2.1]heptane-3,5′-oxazol]-2′-amine]",91 nM,100 to 1000 nM,
"Fc1ccc2nc(NC3=NC[C@@]4(C[N@@]5CC[C@@H]4C5)O3)sc2n1 (relative stereo) [Example 4, (3R*,4R*)—N-(5-Fluorothiazolo[5,4-b]pyridin-2-yl)-4′H-1-azaspiro[bicyclo[2.2.1]heptane-3,5′-oxazol]-2′-amine]",,100 to 1000 nM,
"COc1ccc2nc(NC3=NC[C@@]4(C[N@@]5CC[C@@H]4C5)O3)sc2n1 (relative stereo) [Example 5, (3R*,4R*)—N-(5-Methoxythiazolo[5,4-b]pyridin-2-yl)-4′H-1-azaspiro[bicyclo[2.2.1]heptane-3,5′-oxazol]-2′-amine]",311 nM,1000 to 100000 nM,
"Clc1cnc(NC2=NC[C@@]3(C[N@@]4CC[C@@H]3C4)O2)c(Cl)c1 (relative stereo) [Example 6, (3R*,4R*)—N-(3,5-Dichloropyridin-2-yl)-4′H-1-azaspiro[bicyclo[2.2.1]heptane-3,5′-oxazol]-2′-amine]",155 nM,100 to 1000 nM,
"c1ccc2cc(NC3=NC[C@@]4(C[N@@]5CC[C@@H]4C5)O3)ncc2c1 (relative stereo) [Example 7, (3R*,4R*)—N-(Isoquinolin-3-yl)-4′H-1-azaspiro[bicyclo[2.2.1]heptane-3,5′-oxazol]-2′-amine]",,< 100 nM,
"c1cnc2sc(NC3=NC[C@@]4(C[N@@]5CC[C@@H]4C5)O3)nc2c1 (relative stereo) [Example 8, (3R*,4R*)—N-(Thiazolo[5,4-b]pyridin-2-yl)-4′H-1-azaspiro[bicyclo[2.2.1]heptane-3,5′-oxazol]-2′-amine]",,100 to 1000 nM,
"Cc1cccc(-c2cnc(NC3=NC[C@@]4(C[N@@]5CC[C@@H]4C5)O3)nc2)c1 (relative stereo) [Example 9, (3R*,4R*)—N-(5-m-Tolylpyrimidin-2-yl)-4′H-1-azaspiro[bicyclo[2.2.1]heptane-3,5′-oxazol]-2′-amine]",,,EC50 [1]: 1000 to 100000 nM; EC50 [2]: 487 nM
"COc1ccc(NC2=NC[C@@]3(C[N@@]4CC[C@@H]3C4)O2)nc1 (relative stereo) [Example 10, (3R*,4R*)—N-(5-Methoxypyridin-2-yl)-4′H-1-azaspiro[bicyclo[2.2.1]heptane-3,5′-oxazol]-2′-amine]",,100 to 1000 nM,
"c1ccc2cc(NC3=NC[C@@]4(C[N@]5CC[C@H]4C5)O3)ncc2c1 (relative stereo) [Example 16, (3R*,4S*)—N-(Isoquinolin-3-yl)-4′H-1-azaspiro[bicyclo[2.2.1]heptane-3,5′-oxazol]-2′-amine]",33 nM,< 100 nM,
"c1cnc2sc(NC3=NC[C@@]4(C[N@]5CC[C@H]4C5)O3)nc2c1 (relative stereo) [Example 17, (3R*,4S*)—N-(Thiazolo[5,4-b]pyridin-2-yl)-4′H-1-azaspiro[bicyclo[2.2.1]heptane-3,5′-oxazol]-2′-amine]",,< 100 nM,
"c1ccc2cc(NC3=NCC4(CN5CCC4C5)O3)ncc2c1 (single isomer, unassigned) [Example 7a]",,< 100 nM,
"c1ccc2cc(NC3=NCC4(CN5CCC4C5)O3)ncc2c1 (single isomer, unassigned) [Example 7b]",,< 100 nM,
"c1cnc2sc(NC3=NCC4(CN5CCC4C5)O3)nc2c1 (single isomer, unassigned) [Example 8a]",121 nM,100 to 1000 nM,
"c1cnc2sc(NC3=NCC4(CN5CCC4C5)O3)nc2c1 (single isomer, unassigned) [Example 8b]",,< 100 nM,
"c1ccc2cc(NC3=NCC4(CN5CCC4C5)O3)ncc2c1 (single isomer, unassigned) [Example 16a]",,1000 to 100000 nM,
"c1ccc2cc(NC3=NCC4(CN5CCC4C5)O3)ncc2c1 (single isomer, unassigned) [Example 16b]",,< 100 nM,
"c1cnc2sc(NC3=NCC4(CN5CCC4C5)O3)nc2c1 (single isomer, unassigned) [Example 17a]",,1000 to 100000 nM,
"c1cnc2sc(NC3=NCC4(CN5CCC4C5)O3)nc2c1 (single isomer, unassigned) [Example 17b]",35 nM,< 100 nM,
"c1cncc(-c2cc(NC3=NC[C@@]4(C[N@@]5CC[C@@H]4C5)O3)ncn2)c1 [Example 11, (3R,4R)—N-(6-(Pyridin-3-yl)pyrimidin-4-yl)-4′H-1-azaspiro[bicyclo[2.2.1]heptane-3,5′-oxazol]-2′-amine]",34 nM,< 100 nM,
"COc1cc(NC2=NC[C@@]3(C[N@@]4CC[C@@H]3C4)O2)ncn1 [Example 13, (3R,4R)—N-(6-Methoxypyrimidin-4-yl)-4′H-1-azaspiro[bicyclo[2.2.1]heptane-3,5′-oxazol]-2′-amine]",,100 to 1000 nM,
"Clc1cnc(NC2=NC[C@@]3(C[N@@]4CC[C@@H]3C4)O2)cn1 [Example 14, (3R,4R)—N-(5-Chloropyrazin-2-yl)-4′H-1-azaspiro[bicyclo[2.2.1]heptane-3,5′-oxazol]-2′-amine]",,100 to 1000 nM,
"c1ccc(-c2ccnc(NC3=NC[C@@]4(C[N@@]5CC[C@@H]4C5)O3)n2)cc1 [Example 15, (3R,4R)—N-(4-Phenylpyrimidin-2-yl)-4′H-1-azaspiro[bicyclo[2.2.1]heptane-3,5′-oxazol]-2′-amine]",,< 100 nM,
"c1cc(-c2cc(NC3=NC[C@@]4(C[N@@]5CC[C@@H]4C5)O3)ncn2)ccn1 [Example 18, (3R,4R)—N-(6-(Pyridin-4-yl)pyrimidin-4-yl)-4′H-1-azaspiro[bicyclo[2.2.1]heptane-3,5′-oxazol]-2′-amine]",,< 100 nM,
"c1cn(-c2cc(NC3=NC[C@@]4(C[N@@]5CC[C@@H]4C5)O3)ncn2)cn1 [Example 19, (3R,4R)—N-(6(1H-Imidazol-1-yl)pyrimidin-4-yl)-4′H-1-azaspiro[bicyclo[2.2.1]heptane-3,5′-oxazol]-2′-amine]",45 nM,< 100 nM,
"Clc1cn(-c2cc(NC3=NC[C@@]4(C[N@@]5CC[C@@H]4C5)O3)ncn2)cn1 [Example 20, (3R,4R)—N-(6-(4-Chloro-1H-imidazol-1-yl)pyrimidin-4-yl)-4′H-1-azaspiro[bicyclo[2.2.1]heptane-3,5′-oxazol]-2′-amine]",129 nM,100 to 1000 nM,
"c1nc(NC2=NC[C@@]3(C[N@@]4CC[C@@H]3C4)O2)cc(-n2cncn2)n1 [Example 21, (3R,4R)—N-(6-(1H-1,2,4-Triazol-1-yl)pyrimidin-4-yl)-4′H-1-azaspiro[bicyclo[2.2.1]heptane-3,5′-oxazol]-2′-amine]",,< 100 nM,
